In paper PMC5380659, “Unique charge-dependent constraint on collagen recognition by integrin α10β1” (Matrix Biology, 2017):
Positions count from the first letter of the chain named. Entries after “also recorded” stand apart in the source; their conditions may differ.

Legend:
wild type α10 I domain = biological target: T1, wild type α10 I domain (Homo sapiens, UniProt O75578); assay: Concentration-dependent SPBA (KD) of wild-type α10 I domain; assay type: binding; conditions: SPBA concentration dependence; for Saturation / quality of binding, wild type α10 I domain: up to 100 μg/ml; for KD, wild type α10 I domain: I domain up to 100 μg/ml, Fig. 9C and D
T1 construct: Recombinant human α10 I domain-encoding plasmid (pGEX-2T-α10 I domain) was cloned using standard procedures; made in house; host or cells: bacteria (pGEX-2T plasmid; the Origami strain is stated only for α2 I domains)
T1 sequence (O75578 167-350 limits assumed): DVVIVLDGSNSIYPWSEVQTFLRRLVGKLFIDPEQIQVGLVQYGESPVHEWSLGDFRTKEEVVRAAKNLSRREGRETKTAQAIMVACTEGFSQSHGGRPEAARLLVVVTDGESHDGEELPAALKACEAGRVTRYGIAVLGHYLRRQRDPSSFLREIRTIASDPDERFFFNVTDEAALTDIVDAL
Experimental: (§1) 96-well plates were prepared as for Fig. 1. A: binding to Toolkit II, B: binding to Toolkit III.
(§2) I domain adhesion was determined colorimetrically, as described, here termed solid phase binding assay (SPBA). Peptides were coated at 10 μg/ml for 1 h at 22 °C on Immulon-2 HB 96-well plates (Thermo Life Sciences, Basingstoke, UK), and blocked for 1 h with 200 μl of TBS containing 50 mg/ml bovine serum albumin. […] Wells were washed five times with 200 μl of adhesion buffer containing MgCl2 or EDTA, before adding 100 μl of adhesion buffer containing the anti-GST-HRP conjugate at 1:10,000 dilution for 1 h at room temperature. After washing, colour was developed using an ImmunoPure TMB Substrate Kit (Pierce) according to the manufacturer's instructions.

R215Q α10 I domain = biological target: T2, R215Q α10 I domain (Homo sapiens, UniProt O75578, R237Q); assay: Concentration-dependent SPBA (KD) of α10-R215Q I domain; assay type: binding; conditions: SPBA concentration dependence; for Saturation / quality of binding, R215Q α10 I domain: up to 100 μg/ml; for KD, R215Q α10 I domain: I domain up to 100 μg/ml, Fig. 9C and D
T2 construct: made in house; host or cells: bacteria
T2 sequence (O75578 167-350 R237Q): T1 sequence (O75578 167-350 limits assumed) with R71Q
Experimental: as §1, §2

α2β1 = system: α2β1; parameters: method as in 4 sources, ref [8], [10] = [8]; PMID 16326707; doi:10.1074/jbc.M509818200; 8 Raynal N. Hamaia S.W. Siljander P.R. Maddox B. Peachey A.R. Fernandez R. Foley L.J. Slatter D.A. Jarvis G.E. Farndale R.W. Use of synthetic peptides to locate novel integrin alpha2beta1-binding moti || [10]; PMID 16043429; doi:10.1074/jbc.M502431200; 10 Kim J.K. Xu Y. Xu X. Keene D.R. Gurusiddappa S. Liang X. Wary K.K. Hook M. A novel binding site in collagen type III for the integrins, alpha 1beta 1 and alpha 2beta 1 J. Biol. Chem. 280 2005 32512 ||| ref not given ||| ref [4] = [4]; PMID 19693543; doi:10.1007/s00441-009-0834-6; 4 Barczyk M. Carracedo S. Gullberg D. Integrins Cell Tissue Res. 339 1 2010 269 280 19693543 10.1007/s00441-009-0834-6 PMC2784866 ||| ref [12] = [12]; PMID 22654115; doi:10.1074/jbc.M112.353144; 12 Hamaia S.W. Pugh N. Raynal N. Nemoz B. Stone R. Gullberg D. Bihan D. Farndale R.W. Mapping of potent and specific binding motifs, GLOGEN and GVOGEA, for integrin alpha1beta1 using collagen toolkits; conditions: cited from earlier work; for Binding to integrin α2β1, previously described: ref not given
C2C12-α10β1 cells = assay: LDH-based SPBA of C2C12-α10β1 cell adhesion; parameters: species or system mouse; conditions: short THPs, 2 mM Mg^2 +, 1 h, Fig. 4B
Experimental: The mouse myoblast cell line, C2C12-α10β1 clone, expresses α10β1 as its sole collagen-binding integrin [16]. To investigate the binding of α10β1 to collagen in a cellular and whole integrin context, therefore, the adhesion of C2C12-α10β1 cells to Toolkits II and III was performed using two different approaches. First, SPBA was used, with lactate dehydrogenase to report the presence of adherent cells, after lysis, as described in Experimental. […] C2C12-α10B1 cells generally bound more prominently to those weaker peptides that supported just-observable binding of free I-domain. This may reflect avidity of the receptor-populated cell surface for the peptide-coated wells, or perhaps up-regulation of integrin affinity following receptor engagement. It is also possible that some cell binding reflects specific indirect interactions. For example, fibronectin, available either by intrinsic expression or from the serum supplement, binds well to II-44, and can also bind integrin αVβ3 [21].
Fig. 2 Binding of α10β1-transfected C2C12 cells to Collagen Toolkits. 96-well plates were coated with peptides as for Fig. 1, then C2C12-α10β1 cells (5 × 10^4 per well) were added and incubated for 1 h in the presence of either 2 mM MgCl2 or 2 mM EDTA as above. A: binding to Toolkit II. B: binding to Toolkit III.
The mouse myoblast cell line, C2C12, (control and transfectants, C2C12-α1β1, C2C12-α2β1, C2C12-α10β1 or C2C12-α11β1) was maintained in RPMI medium containing 10% fetal bovine serum, 2 mM glutamine, 100 IU/ml penicillin, 100 μg/ml streptomycin, and 2.5 μg/ml amphotericin. Cells were harvested by centrifugation, washed, and suspended at 0.5 × 10^6/ml in Tris-buffered saline supplemented with 5.5 mM glucose and either 2 mM EDTA or 2 mM MgCl2. SPBA was performed as follows: 100 μl of the cell suspension was added to peptide-coated wells [42] at 20 °C for 60 min. Cell adhesion was determined colorimetrically after lysis, using a lactate dehydrogenase (LDH)-based cell detection kit (Roche Diagnostics) according to the supplier's instructions.

Row | Substance | Saturation / quality of binding, wild type α10 I domain (wild type α10 I domain) | Saturation / quality of binding, R215Q α10 I domain (R215Q α10 I domain) | Binding to integrin α2β1, previously described (α2β1) | Adhesion of C2C12-α10β1 cells to short triple-helical peptides (C2C12-α10β1 cells) | KD, wild type α10 I domain (wild type α10 I domain) [µg/mL] | KD, R215Q α10 I domain (R215Q α10 I domain) | Binding to α2β1 (α2β1; ref [8], [10])
1 | GFOGER [THP containing GFOGER served as positive control, reference compound] | did not saturate at up to 100 μg/ml; also recorded: good ligand | did not saturate at up to 100 μg/ml; also recorded: good ligand | good binding motifs | less well |  |  | 
2 | GLOGEN [short THP containing GLOGEN] | saturation binding | enhanced binding of R215Q to GROGER but not GLOGEN; also recorded: saturation binding | good binding motifs | bound strongly | ~10 | ~10 µg/mL | 
3 | GROGER [short triple-helical peptide containing GROGER] | bound poorly | enhanced binding; also recorded: bound quite well | good binding motifs | absence of binding | > 100 | about 50 μg/ml | relatively good α2β1-binding motif
